{
  "source": "patent US6492333B1",
  "about": "“Treatment of myeloma bone disease with proteasomal and NF-κB activity inhibitors” (Osteoscreen, Inc., priority 1999, dated 2002)",
  "key": {"[1]": {"tested_on": "U266BL cells", "assay": "Viability of myeloma cells by trypan blue dye-exclusion assay (U266BL)", "type": "cell-based, human", "conditions": "24 hours", "method": "(§1) In another experiment, the direct effect of the proteasomal inhibitor PSI and other NF-kB inhibitors on the viability in human myeloma cells and 5TGM-1 cells in vitro was evaluated.\n(§2) 1×10^6 human myeloma (IM9 and U266BL) cells or 5TGM-1 cells were plated out in the presence and/or absence of PSI and other NF-κB inhibitors. After 24 hours, the viability of the myeloma cells was assessed by the trypan blue dye-exclusion assay. These compounds, at low (submicromolar) concentrations, markedly decrease the viability of both human and murine myeloma cells in culture."}, "[2]": {"tested_on": "5TGM-1 cells", "assay": "Serum tumor marker IgG2b in mice inoculated intravenously with 5TGM-1 cells", "type": "in vivo, C57BL/KwLaRij mice", "conditions": "PSI 5 mg/kg/day subcutaneously; sera on days 0, 7, 14 and 18", "method": "Eight (8) C57BL/KwLaRij mice were each injected with 1×10^6 5TGM-1 cells through the tail vein. They were then randomized into two groups, one group dosed with PSI (5 mg/kg/day subcutaneously) and the other group (untreated control) received only vehicle. Sera were obtained at the start (day 0) and on days 7, 14 and 18 followed by assay for IgG2b."}, "[3]": {"tested_on": "5TGM-1 cultured myeloma cells", "assay": "PSI injected into subcutaneous 5TGM-1 myeloma tumors in mice", "type": "in vivo, C57BL/KaLwRij mice", "method": "Nine (9) C57BL/KaLwRij mice were inoculated with 0.5×10^6 5TGM-1 cultured myeloma cells which were injected subcutaneously over the flank.\nOne group had PSI injected directly into the tumors (˜5 mg/kg/day) and the other group had only vehicle injected into the tumors."}, "[4]": {"tested_on": "5TGM-1 cultured myeloma cells", "assay": "Hind-limb paralysis after intravenous 5TGM-1 myeloma cell inoculation", "type": "in vivo, C57BL/KaLwRij mice", "conditions": "PSI 5 mg/kg/day subcutaneously for 28 days; untreated mice all paralysed by at least day 27", "method": "Ten (10) C57BL/KaLwRij mice were inoculated intravenously with 1×10^6 5TGM-1 cultured myeloma cells. When untreated, the mice invariably develop hind-limb paralysis after 26-30 days.\nOne group of five (5) mice were injected with PSI (5 mg/kg/day) subcutaneously over their flank portion for 28 days and the other group received only vehicle. […] All of the untreated mice had developed hind-limb paralysis by at least day 27. In contrast, none of the PSI-treated group developed paraplegia before at least day 33."}, "[5]": {"tested_on": "human myeloma IM-9 cells", "assay": "Viability of myeloma cells by trypan blue dye-exclusion assay (IM-9)", "type": "cell-based", "conditions": "24 hours", "method": "as §1, §2"}, "[6]": {"tested_on": "5TGM1 cells", "assay": "Viability of myeloma cells by trypan blue dye-exclusion assay (5TGM-1)", "type": "cell-based, murine", "conditions": "100 nM, 24 hours", "method": "as §1, §2"}, "[7]": {"conditions": "relative to MG-132, MG-115 and MG-341"}},
  "note": "Where a SMILES comes first, the peptide text is derived from it. The star is where a group is joined. Cbz = O=C(OCc1ccccc1)*; OtBu = CC(C)(C)O*",
  "data": [
    {"smiles": "CC[C@H](C)[C@H](NC(=O)OCc1ccccc1)C(=O)N[C@@H](CCC(=O)OC(C)(C)C)C(=O)N[C@@H](C)C(=O)N[C@H](C=O)CC(C)C", "note": "[PSI, N-carbobenzoyl-Ile-Glu-(OtBu)-Ala-Leu-CHO] (Cbz-IE(OtBu)AL-aldehyde)", "values": [
      {"measurement": "viability", "setting": "[1]; 0.01 μM", "value": "less than 20%"},
      {"measurement": "tumor marker IgG2b in sera", "setting": "[2]", "value": "markedly reduced"},
      {"measurement": "survival and signs of tumor", "setting": "[3]; 4 months after treatment, PSI ~5 mg/kg/day intratumoral", "value": "alive and well with no signs of tumor"},
      {"measurement": "size of the tumors", "setting": "[3]; PSI ~5 mg/kg/day injected directly into subcutaneous tumors, treatment commenced on day 35", "value": "decreased markedly"},
      {"measurement": "health of treated mice", "setting": "[3]; up until 3 months after tumor inoculation, even though treatment was discontinued, PSI ~5 mg/kg/day intratumoral", "value": "remained healthy"},
      {"measurement": "time at which hind-limb paralysis (paraplegia) developed", "setting": "[4]", "value": "≥ 33", "unit": "days"},
      {"measurement": "viability", "setting": "[5]; 0.01 μM", "value": "marked diminution in viability"},
      {"measurement": "viability", "setting": "[6]", "value": "~0", "unit": "%"}
    ]},
    {"smiles": "S=C(S)N1CCCC1", "note": "[PDTC, 1-pyrrolidine carbothiotic acid]", "values": [
      {"measurement": "viability", "setting": "[1]; 0.1 μM", "value": "less than 40%"}
    ]},
    {"smiles": "O=C(NC1=CC(=O)c2ccccc2C1=O)c1ccccc1", "note": "[PPM-18]", "values": [
      {"measurement": "effect on viability as compared to control", "setting": "[1]; concentration not given", "value": "does not appear to affect viability appreciatively"},
      {"measurement": "effect on viability", "setting": "[5]; concentration not given", "value": "relatively ineffective"}
    ]},
    {"smiles": "C=C(C)[C@]12C[C@@H](C)[C@@]34O[C@](Cc5ccccc5)(O[C@@H]1[C@@H]3C=C(COC(=O)Cc1ccc(O)c(OC)c1)C[C@]1(O)C(=O)C(C)=C[C@@H]41)O2", "note": "[resiniferatoxin]", "values": [
      {"measurement": "activity in the ABA assay", "setting": "[7]", "value": "less active"}
    ]}
  ]
}
